Reference: US5324648A, “Substituted isocoumarins as serine protease inhibitors and anti-inflammatory agents” (Georgia Tech Research Corporation, priority 1992, dated 1994)

How the values were obtained:
Assay type in all cases: biochemical
complement protein D = complement protein D (Homo sapiens, UniProt P00746); test: Inactivation rate of complement protein D; settings: Table II; pH 7.5, 25° C; [I] 0.05 to 1.29 mM
Method: (§1) Inactivation rates of serine proteases by substituted isocoumarins were measured by the incubation method. An aliquot of inhibitor (25 or 50 μl) in Me2 SO was added to a buffered enzyme solution (0.01-2.3 μM) to initiate the inactivation. Aliquots (50 μl) were withdrawn at various intervals and the residual enzymatic activity was measured. Me2 SO concentration in the reaction mixture was 8-12% (v/v). 0.1 Hepes, 0.01M CaCl2, pH 7.5 buffer was utilized for trypsin and coagulation enzymes. 0.1M Hepes, 0.5M NaCl, pH 7.5 was utilized for other serine proteases. The inhibitor concentrations are shown in all the tables. Peptide thioesters or peptide nitroanilides with appropriate sequence were used as substrates for various serine proteases. All peptide thioester hydrolysis rates were measured with assay mixtures containing 4,4'-dithiodipyridine (ε324 =19800M^-1 cm^-1; Grasetti & Murray, Arch. Biochem. Biophys. 119, pp 41-49 (1967)). Peptide 4-nitroanilide nitroanilide hydrolysis was measured at 410 nm (ε410 =8800M^-1 cm^-1; Erlanger et al., Arch. Biochem. Biophys. 95, pp 271-278 (1961)). First order inactivation rate constant (kobs) were obtained from plots of ln (vt /vo) vs time, and the correlation coefficients were greater than 0.98.
(§2) ^a Conditions were 0.1M Hepes, 0.5M NaCl, pH 7.5, 8-10% Me2 SO
(§3) and 25° C. Inactivation rates were measured by incubation method.
(§4) Enzyme concentrations were as follows: protein D, 1-9 μM; C2, 0.7-1
(§5) μM; B, 1.8 μM; Bb, 0.3-0.8 μM; Cl^- s, 0.07 μM; Cl^-

complement protein C2 = target: T1, complement protein C2 (Homo sapiens, UniProt P06681); test: Inactivation rate of complement protein C2
T1 sequence (P06681 21-752): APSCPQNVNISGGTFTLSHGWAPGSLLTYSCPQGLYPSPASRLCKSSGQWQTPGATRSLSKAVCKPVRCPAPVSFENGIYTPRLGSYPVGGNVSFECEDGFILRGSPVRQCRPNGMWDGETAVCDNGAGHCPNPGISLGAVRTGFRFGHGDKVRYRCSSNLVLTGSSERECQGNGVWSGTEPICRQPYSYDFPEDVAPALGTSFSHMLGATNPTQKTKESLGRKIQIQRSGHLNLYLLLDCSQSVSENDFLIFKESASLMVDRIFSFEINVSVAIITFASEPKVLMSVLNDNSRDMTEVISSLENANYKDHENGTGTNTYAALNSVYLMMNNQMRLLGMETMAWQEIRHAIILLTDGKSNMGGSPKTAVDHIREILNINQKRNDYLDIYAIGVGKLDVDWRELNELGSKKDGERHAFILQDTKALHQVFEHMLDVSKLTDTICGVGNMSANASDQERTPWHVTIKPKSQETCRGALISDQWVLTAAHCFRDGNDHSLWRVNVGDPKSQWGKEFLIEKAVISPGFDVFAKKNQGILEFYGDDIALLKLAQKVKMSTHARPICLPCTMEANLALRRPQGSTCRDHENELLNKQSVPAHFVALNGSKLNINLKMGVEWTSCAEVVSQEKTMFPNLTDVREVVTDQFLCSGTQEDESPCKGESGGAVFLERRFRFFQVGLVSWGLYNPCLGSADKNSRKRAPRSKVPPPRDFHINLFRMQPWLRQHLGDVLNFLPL
Method: as §1, §2, §3, §4, §5

complement protein B = complement protein B (Homo sapiens, UniProt P00751); test: Inactivation rate of complement protein B
Method: as §1, §2, §3, §4, §5

[1] = target: sheep lung lymph tryptase; test: Inactivation rate of sheep lung lymph tryptase; settings: Table III; 0.1M Hepes, 0.5M NaCl, pH 7.0, 25° C
Method: Inactivation rates of serine proteases by substituted isocoumarins were measured by the incubation method. An aliquot of inhibitor (25 or 50 μl) in Me2 SO was added to a buffered enzyme solution (0.01-2.3 μM) to initiate the inactivation. Aliquots (50 μl) were withdrawn at various intervals and the residual enzymatic activity was measured. […] 0.1 Hepes, 0.01M CaCl2, pH 7.5 buffer was utilized for trypsin and coagulation enzymes. […] The inhibitor concentrations are shown in all the tables. Peptide thioesters or peptide nitroanilides with appropriate sequence were used as substrates for various serine proteases.
(§6) ^a Inactivation rates were measured at 0.1M Hepes, 0.5M NaCl, pH 7.5
(§7) buffer, 8% Me2 SO and 25° C.

bovine thrombin = target: T2, bovine thrombin (Bos taurus, UniProt P00735); test: Inactivation rate of bovine thrombin; settings: Table VIII; pH 7.5, 25° C; [I] 1.2-54 μM; read-out: kobs/[I]
T2 construct: bovine thrombin
Method in brief: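 Incubation method: isocoumarin inhibitor in Me2SO added to enzyme (0.01-2.3 μM) in 0.1M Hepes, 0.01M CaCl2, pH 7.5, 8-12% Me2SO, 25° C; aliquots withdrawn over time for residual activity against peptide thioester or 4-nitroanilide substrates. kobs from ln(vt/vo) vs time.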

human factor Xa = target: T3, human factor Xa (Homo sapiens, UniProt P00742); test: Inactivation rate of human factor Xa; settings: Table VIII; pH 7.5, 25° C; [I] 3.6-44 μM; read-out: kobs/[I]
T3 construct: human factor Xa
Method: as §1
(§8) ^a Conditions were as 0.1M Hepes, 0.01M CaCl2, pH 7.5 and 8-12%
(§9) Me2 SO and 25° C. Rate constants were measured by incubation
(§10) method unless otherwise noted. An aliquot of inhibitor was added to an
(§11) enzyme solution and aliquots removed with time and assayed for remaining
(§12) enzymatic activity. Firstorder rate constants, kobs were obtained
(§13) from the plots of ln(vt /vo) versus time.
(§14) ^a Inhibition rates were measured in 0.1M Hepes, 0.01M CaCl2, pH
(§15) 7.5 buffer, 8% Me2 SO and at 25° C.

human factor XIIa = target: T4, human factor XIIa (Homo sapiens, UniProt P00748); test: Inactivation rate of human factor XIIa; settings: Table VIII; pH 7.5, 25° C; [I] 3.6-4.9 μM; read-out: kobs/[I]
T4 construct: human factor XIIa
T4 sequence (P00748 373-615 limits assumed): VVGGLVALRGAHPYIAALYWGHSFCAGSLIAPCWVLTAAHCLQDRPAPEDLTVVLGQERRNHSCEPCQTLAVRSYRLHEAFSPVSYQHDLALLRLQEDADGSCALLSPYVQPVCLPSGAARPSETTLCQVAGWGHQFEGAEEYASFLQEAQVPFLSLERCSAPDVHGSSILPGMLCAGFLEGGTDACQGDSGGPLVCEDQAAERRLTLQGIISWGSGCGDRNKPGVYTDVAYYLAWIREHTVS
T4 sequence (P00748 20-372 partner limits assumed): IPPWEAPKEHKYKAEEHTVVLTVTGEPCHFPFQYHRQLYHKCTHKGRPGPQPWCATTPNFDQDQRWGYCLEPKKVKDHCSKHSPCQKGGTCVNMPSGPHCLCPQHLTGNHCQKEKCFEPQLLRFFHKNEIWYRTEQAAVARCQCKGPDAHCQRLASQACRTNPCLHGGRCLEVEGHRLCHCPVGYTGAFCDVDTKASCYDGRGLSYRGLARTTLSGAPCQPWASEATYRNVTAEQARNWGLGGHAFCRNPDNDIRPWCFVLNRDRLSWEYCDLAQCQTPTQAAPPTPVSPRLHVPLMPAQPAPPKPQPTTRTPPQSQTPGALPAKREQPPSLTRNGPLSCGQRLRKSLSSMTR
Method: as §1, §8, §9, §10, §11, §12, §13, §14, §15

human thrombin = target: T5, human thrombin (Homo sapiens, UniProt P00734); test: Inactivation rate of human thrombin; settings: Table VIII; pH 7.5, 25° C; [I] 1.2-54 μM; read-out: kobs/[I]
T5 construct: human thrombin
Method in brief: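 Incubation method: enzyme (0.01-2.3 μM) mixed with inhibitor in 0.1M Hepes, 0.01M CaCl2, pH 7.5, 8% Me2SO, 25° C; residual activity sampled over time with peptide thioester or 4-nitroanilide substrates. kobs from ln(vt/vo) vs time plots.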

human lung tryptase = test: Inactivation rate of human lung tryptase; settings: Table IX; pH 7.5, 25° C; [I] 0.42-0.47 μM
Method: as §1, §6, §7, §14
(§16) 7.5 buffer for human plasmin; 25 mM Phosphate, 0.5M NaCl, 1 mM EDTA, pH
(§17) 7.5 buffer for rat skin tryptase and 0.1M Hepes, 0.5M NaCl, pH 7.5 for
(§18) human lung tryptase, human skin tryptase and rt-PA. All enzymes were
(§19) assayed with ZArg-SBzl (0.07 mM) in the presence of 4,4dithiodipyridine
(§20) (0.33 mM). Reaction mixtures contained 8% Me2 SO and assays were […]

rat skin tryptase = target: T6, rat skin tryptase (Rattus norvegicus, UniProt P27435); test: Inactivation rate of rat skin tryptase; settings: pH 7.5, Table IX; pH 7.5, 25° C; [I] 0.42-0.51 μM; read-out: kobs/[I]
T6 construct: from tissue; host or cells: rat skin
Method: as §1
^b Inactivation rates were measured at 25 mM phosphate, 0.5M NaCl, 1
mM EDTA, pH 7.5 buffer, 9% Me2 SO and 25° C.
as §14, §16, §17, §18, §19, §20

[2] = target: recombinant human tissue plasminogen activator (Homo sapiens, UniProt P00750); test: Inactivation rate of recombinant human tissue plasminogen activator; settings: pH 7.5, Table IX; pH 7.5, 25° C; [I] 3.5-5.0 μM; read-out: kobs/[I]
Method: as §1
^a Inactivation constants were measured at 0.1M Hepes, 0.5M NaCl (or
as §14, §16, §17, §18, §19, §20

human skin tryptase = test: Inhibition of human skin tryptase; settings: Table IX; pH 7.5, 25° C; [I] 0.34-0.39 μM
Method: as §1, §14, §16, §17, §18, §19, §20

recombinant human tissue plasminogen activator, sequence (P00750 36-562): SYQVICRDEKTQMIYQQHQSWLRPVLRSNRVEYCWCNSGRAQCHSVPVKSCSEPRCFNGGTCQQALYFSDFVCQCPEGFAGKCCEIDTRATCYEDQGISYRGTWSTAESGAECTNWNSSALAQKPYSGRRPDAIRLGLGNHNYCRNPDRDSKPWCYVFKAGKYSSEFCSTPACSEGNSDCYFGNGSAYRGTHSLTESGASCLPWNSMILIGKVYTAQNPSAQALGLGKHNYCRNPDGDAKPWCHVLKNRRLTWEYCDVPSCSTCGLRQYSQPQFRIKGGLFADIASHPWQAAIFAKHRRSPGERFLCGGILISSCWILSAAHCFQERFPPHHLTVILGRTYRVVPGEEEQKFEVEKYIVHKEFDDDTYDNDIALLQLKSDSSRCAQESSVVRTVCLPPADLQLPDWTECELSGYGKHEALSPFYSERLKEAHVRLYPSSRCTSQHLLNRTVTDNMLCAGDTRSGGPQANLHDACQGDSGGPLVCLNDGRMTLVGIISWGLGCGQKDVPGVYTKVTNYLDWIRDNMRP
T3 sequence (P00742 235-488 limits assumed): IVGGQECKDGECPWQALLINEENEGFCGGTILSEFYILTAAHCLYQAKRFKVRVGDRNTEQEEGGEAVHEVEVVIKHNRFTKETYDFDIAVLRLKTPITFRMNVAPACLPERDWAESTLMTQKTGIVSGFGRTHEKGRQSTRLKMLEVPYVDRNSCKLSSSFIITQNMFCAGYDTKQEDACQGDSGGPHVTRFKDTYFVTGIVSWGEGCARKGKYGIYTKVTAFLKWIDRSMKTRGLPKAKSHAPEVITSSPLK
T3 sequence (P00742 41-179 partner limits assumed): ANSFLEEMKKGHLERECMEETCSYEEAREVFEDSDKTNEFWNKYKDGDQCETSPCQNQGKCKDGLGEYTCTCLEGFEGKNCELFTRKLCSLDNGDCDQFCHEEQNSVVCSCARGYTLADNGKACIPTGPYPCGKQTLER
T6 sequence (P27435 29-273): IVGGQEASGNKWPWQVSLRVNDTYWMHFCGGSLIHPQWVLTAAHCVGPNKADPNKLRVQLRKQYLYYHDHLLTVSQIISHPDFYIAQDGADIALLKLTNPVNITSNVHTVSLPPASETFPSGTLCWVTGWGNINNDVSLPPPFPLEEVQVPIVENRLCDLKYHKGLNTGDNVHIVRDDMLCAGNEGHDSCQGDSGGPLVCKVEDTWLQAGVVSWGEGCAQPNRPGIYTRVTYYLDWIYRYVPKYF
complement protein D, sequence (P00746 26-253): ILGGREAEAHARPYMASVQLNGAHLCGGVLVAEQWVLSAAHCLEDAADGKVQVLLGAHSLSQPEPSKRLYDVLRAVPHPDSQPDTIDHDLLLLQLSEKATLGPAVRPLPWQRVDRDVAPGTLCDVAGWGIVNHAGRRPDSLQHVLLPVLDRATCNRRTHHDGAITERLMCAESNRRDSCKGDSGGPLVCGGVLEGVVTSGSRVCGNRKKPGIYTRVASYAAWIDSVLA
complement protein B, sequence (P00751 26-764): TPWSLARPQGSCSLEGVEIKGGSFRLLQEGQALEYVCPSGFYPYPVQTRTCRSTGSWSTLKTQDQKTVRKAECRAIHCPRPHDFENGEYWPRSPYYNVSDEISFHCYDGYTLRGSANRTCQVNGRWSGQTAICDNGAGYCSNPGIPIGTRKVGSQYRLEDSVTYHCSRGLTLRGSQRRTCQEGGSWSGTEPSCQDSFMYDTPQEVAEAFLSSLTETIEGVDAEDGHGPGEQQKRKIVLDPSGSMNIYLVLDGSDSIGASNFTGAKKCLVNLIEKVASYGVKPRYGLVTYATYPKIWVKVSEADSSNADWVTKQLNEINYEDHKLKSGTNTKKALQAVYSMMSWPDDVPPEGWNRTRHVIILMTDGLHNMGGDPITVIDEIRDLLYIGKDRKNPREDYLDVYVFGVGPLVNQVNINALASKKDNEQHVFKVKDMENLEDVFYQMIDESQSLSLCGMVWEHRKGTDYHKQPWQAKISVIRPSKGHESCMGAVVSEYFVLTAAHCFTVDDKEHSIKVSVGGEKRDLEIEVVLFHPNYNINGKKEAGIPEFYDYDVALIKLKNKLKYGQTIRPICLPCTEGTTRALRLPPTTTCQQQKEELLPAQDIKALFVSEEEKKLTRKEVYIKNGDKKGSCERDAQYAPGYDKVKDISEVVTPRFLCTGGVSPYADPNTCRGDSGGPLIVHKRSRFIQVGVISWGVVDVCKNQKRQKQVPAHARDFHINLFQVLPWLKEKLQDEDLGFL

kinact/KI (bovine thrombin)	kinact/KI (human factor Xa)	kinact/KI (human factor XIIa)	kinact/KI (human thrombin)	kobs/[I] (human lung tryptase)	kinact/KI (rat skin tryptase)	kinact/KI [2]	kobs/[I] (human skin tryptase)	SMILES	kobs/[I] (complement protein D)	inhibition of C2 (in words) (complement protein C2)	inhibition of protein B (in words) (complement protein B)	kobs/[I] [1]
								N=C(N)c1ccc(CS(=O)(=O)F)cc1 [APMSF, 4-amidinophenylmethane sulfonyl fluoride, reference compound]	110 M⁻¹ s⁻¹	do not show any inhibition	do not show any inhibition	230 M⁻¹ s⁻¹
4240 M⁻¹ s⁻¹	3070 M⁻¹ s⁻¹	82000 M⁻¹ s⁻¹	3070 M⁻¹ s⁻¹	60,000 M^-1 s^-1	360000 M⁻¹ s⁻¹	15000 M⁻¹ s⁻¹	62,000 M^-1 s^-1	N=C(N)SCCOc1oc(=O)c2cc(NC(=O)[C@H](N)Cc3ccccc3)ccc2c1Cl [D-Phe--NH-CiTEtOIC, 7-(D-phenylalanylamino)-4-chloro-3-(2-isothiureidoethoxy)isocoumarin]				
